Laboratory results taken from ChEMBL document CHEMBL4017449, “Inhibition of Malassezia globosa carbonic anhydrase with phenols” (Bioorg Med Chem, 2017).
pKi: −log10 of the molar value.

Tests used:
[1] = Inhibition of Malassezia globosa recombinant beta-carbonic anhydrase preincubated for 15 mins prior to testing measured for 10 to 100 secs by phenol red-based stopped-flow CO2 hydration assay
Carbonic anhydrase 1 = Carbonic anhydrase 1 (Homo sapiens, UniProt P00915); assay: Inhibition of human recombinant carbonic anhydrase 1 preincubated for 15 mins prior to testing measured for 10 to 100 secs by phenol red-based stopped-flow CO2 hydration assay
Carbonic anhydrase 2 = Carbonic anhydrase 2 (Homo sapiens, UniProt P00918); assay: Inhibition of human recombinant carbonic anhydrase 2 preincubated for 15 mins prior to testing measured for 10 to 100 secs by phenol red-based stopped-flow CO2 hydration assay

Sequence of Carbonic anhydrase 1 (P00915 whole entry): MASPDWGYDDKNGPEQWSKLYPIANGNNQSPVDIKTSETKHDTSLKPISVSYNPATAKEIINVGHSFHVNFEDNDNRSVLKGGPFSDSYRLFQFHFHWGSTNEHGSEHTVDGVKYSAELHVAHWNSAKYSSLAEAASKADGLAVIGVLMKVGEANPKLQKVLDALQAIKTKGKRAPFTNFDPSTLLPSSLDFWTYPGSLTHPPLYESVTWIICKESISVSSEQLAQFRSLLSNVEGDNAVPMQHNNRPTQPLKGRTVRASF

Row | SMILES | pKi [1] | pKi (Carbonic anhydrase 1) | pKi (Carbonic anhydrase 2)
1 | Nc1cc(O)ccc1Cl | 4.35 |  | 
2 | Oc1c(F)cc(F)cc1F | 4.44 | < 4.00 | < 4.00
3 | Oc1cc(F)cc(F)c1 | 5.06 |  | 
4 | Oc1cc(F)ccc1F | 4.53 |  | 
5 | Oc1ccc(O)c(O)c1 | 5.13 | < 4.00 | < 4.00
6 | Nc1ccc(O)c(Cl)c1 | < 4.00 | 4.24 | 4.24
7 | O=C(O)c1c(O)cccc1O | 5.23 |  | 
8 | Nc1cccc(O)c1 [3-AMINOPHENOL] | 5.41 |  | 
9 | Nc1ccc(O)cc1 [4-AMINOPHENOL] | 4.49 |  | 
10 | N#Cc1ccc(O)cc1 [4-CYANOPHENOL] | 6.15 |  | 
11 | CC(=O)Nc1ccc(O)cc1 [ACETAMINOPHEN] | 5.60 |  | 
12 | CC(=O)Nc1nnc(S(N)(=O)=O)s1 [ACETAZOLAMIDE] | 4.13 |  | 
13 | O=C(O)/C=C/c1ccc(O)c(O)c1 [CAFFEIC ACID] | 6.22 |  | 
14 | Oc1ccccc1O [CATECHOL] | 5.15 |  | 
15 | O=C(O)/C=C/c1ccc(O)cc1 [COUMARIC ACID] | 5.48 |  | 
16 | O=C(O)c1cc(O)ccc1O [GENTISIC ACID] | 5.35 |  | 
17 | Oc1ccc(O)cc1 [HYDROQUINONE] | 5.20 |  | 
18 | O=C(O)c1ccc(O)cc1 [PARABEN] | 5.31 |  | 
19 | OCc1ccc(O)cc1 [PARAHYDROXYBENZYL ALCOHOL] | 5.21 |  | 
20 | Oc1ccccc1 [PHENOL] | 4.19 |  | 
21 | O=C(O)c1ccc(O)c(O)c1 [PROTOCATECHUIC ACID] | 5.19 |  | 
22 | Oc1cccc(O)c1 [RESORCINOL] | 5.21 |  | 
23 | O=C(O)c1ccccc1O [SALICYLIC ACID] | 5.18 |  | 
